Experimental data: patent US8575091B1, “Amylin analogues and pharmaceutical compositions thereof” (Novo Nordisk A/S, priority 2012, dated 2013)
Numbered stars: 1 amine (or outer) side, 2 acyl side, 3 side chain; on linkers, the order of the positions; unused ones are H or OH. Bridge positions count the residues as written; N and C are the ends. Side chains are listed from the residue outwards. Peptide text beside a SMILES is read from it. * marks the point of attachment. C20 diacid = O=C(O)CCCCCCCCCCCCCCCCCCC(=O)*; γGlu = O=C(O)[C@H](CCC(=O)[*:2])N[*:1]

Legend:
human amylin receptor = molecular target: T1, human amylin receptor (Homo sapiens, UniProt O60896+P30988); assay: Assay (V) binding to the human amylin receptor (SPA, 125I-rat amylin)
T1 construct: expressed in transfected cells
T1 sequence (P30988 25-474): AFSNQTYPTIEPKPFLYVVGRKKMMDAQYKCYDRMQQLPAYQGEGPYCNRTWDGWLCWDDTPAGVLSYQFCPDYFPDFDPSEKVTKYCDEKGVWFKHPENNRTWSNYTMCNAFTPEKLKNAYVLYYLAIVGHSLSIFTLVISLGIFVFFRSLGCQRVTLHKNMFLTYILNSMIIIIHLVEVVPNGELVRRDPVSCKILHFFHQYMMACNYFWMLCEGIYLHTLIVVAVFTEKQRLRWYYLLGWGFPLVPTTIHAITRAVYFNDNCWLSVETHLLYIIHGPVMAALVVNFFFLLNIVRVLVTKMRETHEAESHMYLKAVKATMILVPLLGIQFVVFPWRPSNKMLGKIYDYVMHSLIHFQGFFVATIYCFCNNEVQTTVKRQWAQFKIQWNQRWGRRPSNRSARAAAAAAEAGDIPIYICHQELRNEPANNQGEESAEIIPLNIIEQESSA
T1 sequence (O60896 24-148 partner): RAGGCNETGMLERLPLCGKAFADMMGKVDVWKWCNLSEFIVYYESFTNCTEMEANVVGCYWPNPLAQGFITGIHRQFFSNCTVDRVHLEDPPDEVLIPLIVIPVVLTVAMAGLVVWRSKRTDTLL
Method: The binding assay was performed using scintillation proximity assay (SPA) beads (RPNQ0001) from PerkinElmer and cell membranes from the Amylin 3(a)/CRE-luc cells (as described in Assay (II)) were used. Membranes were prepared in the following way; the cells were rinsed with PBS and incubated with Versene for approximately 5 min before harvesting. The cells were flushed with PBS and the cell-suspension was centrifuged for 5 min at 1000 rpm. […] The resulting pellet was resuspended in buffer 2 and protein concentration was measured (BCA protein Assay, Pierce). The homogenate was kept cold during the whole procedure. The membranes were kept at −80° C. until use. The assay was performed in a 384 well Optiplate (PerkinElmer) in a total volume of 40 ul. Membranes were mixed with SPA beads. Final concentration of membranes 35 ng/μL final and SPA beads was 0.05 mg/well. Test-compounds were dissolved in DMSO and further diluted in assay buffer (50 mM Hepes, pH 7.4, 1 mM CaCl2, 5 mM MgCl2, 0.1% OA and 0.02% Tween20). […] Samples were analyzed on TopCounter™ (Packard). The IC50 was calculated using (one site binding competition analysis) GraphPad Prism5 as a measure of receptor affinity.

[1] = molecular target: T2, human amylin receptor (amylin 3(a) receptor: human calcitonin receptor + RAMP-3) (Homo sapiens, UniProt O60896+P30988); assay: Assay (II)a functional assay, human amylin receptor (CRE luciferase, BHK cells); format: cell-based
T2 construct: expressed in transfected cells
T2 sequence (P30988 25-474): T1 sequence (P30988 25-474)
T2 sequence (O60896 24-148 partner): T1 sequence (O60896 24-148 partner)

[2] = Table 7b, human calcitonin receptor binding IC50 divided by human amylin receptor binding IC50
[3] = Table 7c, human calcitonin receptor binding IC50 divided by human amylin receptor binding IC50
[4] = human binding ratio, included for comparison
[5] = Table 6, human functional selectivity (hCTR EC50 / hAmylin-R EC50)
[6] = Table 6a, human functional selectivity (hCTR EC50 / hAmylin-R EC50), at least 5
[7] = Table 6i, hCTR funct. EC50 / hAmylin-R funct. EC50

| Ratio hCT/hAmylin binding (human amylin receptor; [2]) | Ratio hCT/hAmylin binding (human amylin receptor; [3]) | Ratio hCT/hAmylin binding (human amylin receptor; [4]) | Ratio hCT/hAmylin funct. [1, 5] | Ratio hCT/hAmylin funct. [1, 6] | Ratio hCT/hAmylin funct. [1, 7] | Ratio hCT/hAmylin funct. ([1]; Table 6j, hCTR funct. EC50 / hAmylin-R funct. EC50) | Ratio hCT/hAmylin funct. ([1]; Table 6k, hCTR funct. EC50 / hAmylin-R funct. EC50) | SMILES |
| --- | --- | --- | --- | --- | --- | --- | --- | --- |
| 20.0 | 20.0 | 20.0 | 5.7 | 5.7 | 5.7 |  |  | CC[C@H](C)[C@H](NC(=O)[C@@H]1CCCN1C(=O)CNC(=O)[C@H](Cc1ccccc1)NC(=O)[C@H](CC(N)=O)NC(=O)[C@@H]1CCCN1C(=O)[C@H](CO)NC(=O)[C@H](CO)NC(=O)[C@H](Cc1c[nH]cn1)NC(=O)[C@H](CCCNC(=N)N)NC(=O)[C@H](CC(C)C)NC(=O)[C@H](Cc1ccccc1)NC(=O)[C@H](CCC(=O)O)NC(=O)[C@H](C)NC(=O)[C@H](CC(C)C)NC(=O)[C@H](CCCNC(=N)N)NC(=O)[C@H](CCC(N)=O)NC(=O)[C@@H](NC(=O)[C@H](C)NC(=O)[C@@H]1CSSC[C@H](NC(=O)[C@H](CCCCN)NC(=O)CC[C@H](NC(=O)CCCCCCCCCCCCCCCCCCC(=O)O)C(=O)O)C(=O)N[C@@H](CC(N)=O)C(=O)N[C@@H]([C@@H](C)O)C(=O)N[C@@H](C)C(=O)N[C@@H]([C@@H](C)O)C(=O)N1)[C@@H](C)O)C(=O)N[C@@H](CC(C)C)C(=O)N1CCC[C@H]1C(=O)N1CCC[C@H]1C(=O)N[C@H](C(=O)N[C@@H](CC(N)=O)C(=O)N[C@H](C(=O)NCC(=O)N[C@@H](CO)C(=O)N[C@@H](CC(N)=O)C(=O)N[C@H](C(=O)N[C@@H](Cc1ccc(O)cc1)C(N)=O)[C@@H](C)O)C(C)C)[C@@H](C)O [Example 6] ({C20 diacid-γGlu}-KCNTATCATQRLAEFLRHSSPNFGPILPPTNVGSNTY-NH2; disulfide 2-7) |
|  |  | 0.5 | 1.1 |  |  |  |  | CC[C@H](C)[C@H](NC(=O)[C@H](C)NC(=O)CNC(=O)[C@H](Cc1ccccc1)NC(=O)[C@H](CC(N)=O)NC(=O)[C@@H]1CCCN1C(=O)[C@H](CO)NC(=O)[C@H](CO)NC(=O)[C@H](Cc1c[nH]cn1)NC(=O)[C@H](CCCNC(=N)N)NC(=O)[C@H](CC(C)C)NC(=O)[C@H](Cc1ccccc1)NC(=O)[C@H](CCC(=O)O)NC(=O)[C@H](C)NC(=O)[C@H](CC(C)C)NC(=O)[C@H](CCCNC(=N)N)NC(=O)[C@H](CCC(N)=O)NC(=O)[C@@H](NC(=O)[C@H](C)NC(=O)[C@@H]1CSSC[C@H](NC(=O)[C@H](CCCCN)NC(=O)CC[C@H](NC(=O)CCCCCCCCCCCCCCCCCCC(=O)O)C(=O)O)C(=O)N[C@@H](CC(N)=O)C(=O)N[C@@H]([C@@H](C)O)C(=O)N[C@@H](C)C(=O)N[C@@H]([C@@H](C)O)C(=O)N1)[C@@H](C)O)C(=O)N1CCC[C@H]1C(=O)N[C@@H](CO)C(=O)N[C@@H](CO)C(=O)N[C@H](C(=O)N[C@@H](CC(N)=O)C(=O)N[C@H](C(=O)NCC(=O)N[C@@H](CO)C(=O)N[C@@H](CC(N)=O)C(=O)N[C@H](C(=O)N1CCC[C@H]1C(N)=O)[C@@H](C)O)C(C)C)[C@@H](C)O [Example 8] ({C20 diacid-γGlu}-KCNTATCATQRLAEFLRHSSPNFGAIPSSTNVGSNTP-NH2; disulfide 2-7) |
|  |  | 4.3 | 5.0 | 5.0 |  |  |  | CC[C@H](C)[C@H](NC(=O)[C@H](C)NC(=O)CNC(=O)[C@H](Cc1ccccc1)NC(=O)[C@H](CC(N)=O)NC(=O)[C@H](CCCCNC(=O)CC[C@H](NC(=O)CC[C@H](NC(=O)CCCCCCCCCCCCCCCCCCC(=O)O)C(=O)O)C(=O)O)NC(=O)[C@H](CO)NC(=O)[C@H](CO)NC(=O)[C@H](Cc1c[nH]cn1)NC(=O)[C@H](CCCNC(=N)N)NC(=O)[C@H](CC(C)C)NC(=O)[C@H](Cc1ccccc1)NC(=O)[C@H](CC(=O)O)NC(=O)[C@H](C)NC(=O)[C@H](CC(C)C)NC(=O)[C@H](CCCNC(=N)N)NC(=O)[C@H](CCC(N)=O)NC(=O)[C@@H](NC(=O)[C@H](C)NC(=O)[C@@H]1CSSC[C@H](NC(=O)[C@@H](N)CCCCN)C(=O)N[C@@H](CC(N)=O)C(=O)N[C@@H]([C@@H](C)O)C(=O)N[C@@H](C)C(=O)N[C@@H]([C@@H](C)O)C(=O)N1)[C@@H](C)O)C(=O)N1CCC[C@H]1C(=O)N[C@@H](CO)C(=O)N[C@@H](CO)C(=O)N[C@H](C(=O)N[C@@H](CC(N)=O)C(=O)N[C@H](C(=O)NCC(=O)N[C@@H](CO)C(=O)N[C@@H](CC(=O)O)C(=O)N[C@H](C(=O)N[C@@H](Cc1ccc(O)cc1)C(N)=O)[C@@H](C)O)C(C)C)[C@@H](C)O [Example 59] (H-KCNTATCATQRLADFLRHSSK([γGlu-γGlu-C20 diacid])NFGAIPSSTNVGSDTY-NH2; disulfide 2-7; N-terminus assumed) |
|  |  | 1.0 | 0.9 |  |  |  |  | CC[C@H](C)[C@H](NC(=O)[C@H](C)NC(=O)CNC(=O)[C@H](Cc1ccccc1)NC(=O)[C@H](CC(N)=O)NC(=O)[C@@H]1CCCN1C(=O)[C@H](CO)NC(=O)[C@H](CO)NC(=O)[C@H](Cc1c[nH]cn1)NC(=O)[C@H](CCCNC(=N)N)NC(=O)[C@H](CC(C)C)NC(=O)[C@H](Cc1ccccc1)NC(=O)[C@H](CCC(=O)O)NC(=O)[C@H](C)NC(=O)[C@H](CC(C)C)NC(=O)[C@H](CCCNC(=N)N)NC(=O)[C@H](CCC(N)=O)NC(=O)[C@@H](NC(=O)[C@H](C)NC(=O)[C@@H]1CSSC[C@H](NC(=O)[C@H](CCCCN)NC(=O)CC[C@H](NC(=O)CCCCCCCCCCCCCCCCCCC(=O)O)C(=O)O)C(=O)N[C@@H](CC(N)=O)C(=O)N[C@@H]([C@@H](C)O)C(=O)N[C@@H](C)C(=O)N[C@@H]([C@@H](C)O)C(=O)N1)[C@@H](C)O)C(=O)N1CCC[C@H]1C(=O)N[C@@H](CO)C(=O)N[C@@H](CO)C(=O)N[C@H](C(=O)N[C@@H](CC(N)=O)C(=O)N[C@H](C(=O)NCC(=O)N[C@@H](CO)C(=O)N[C@@H](CC(=O)O)C(=O)N[C@H](C(=O)N1CCC[C@H]1C(N)=O)[C@@H](C)O)C(C)C)[C@@H](C)O [Example 11] ({C20 diacid-γGlu}-KCNTATCATQRLAEFLRHSSPNFGAIPSSTNVGSDTP-NH2; disulfide 2-7) |
| 26.0 | 26.0 | 26.0 | 8.9 | 8.9 | 8.9 | 8.9 | 8.9 | CC[C@H](C)[C@H](NC(=O)[C@H](C)NC(=O)CNC(=O)[C@H](Cc1ccccc1)NC(=O)[C@H](CC(N)=O)NC(=O)[C@@H]1CCCN1C(=O)[C@H](CO)NC(=O)[C@H](CO)NC(=O)[C@H](Cc1c[nH]cn1)NC(=O)[C@H](CCCNC(=N)N)NC(=O)[C@H](CC(C)C)NC(=O)[C@H](Cc1ccccc1)NC(=O)[C@H](CCC(=O)O)NC(=O)[C@H](C)NC(=O)[C@H](CC(C)C)NC(=O)[C@H](CCCNC(=N)N)NC(=O)[C@H](CCC(N)=O)NC(=O)[C@@H](NC(=O)[C@H](C)NC(=O)[C@@H]1CSSC[C@H](NC(=O)[C@H](CCCCN)NC(=O)CC[C@H](NC(=O)CC[C@H](NC(=O)CCCCCCCCCCCCCCCCCCC(=O)O)C(=O)O)C(=O)O)C(=O)N[C@@H](CC(N)=O)C(=O)N[C@@H]([C@@H](C)O)C(=O)N[C@@H](C)C(=O)N[C@@H]([C@@H](C)O)C(=O)N1)[C@@H](C)O)C(=O)N1CCC[C@H]1C(=O)N[C@@H](CO)C(=O)N[C@@H](CO)C(=O)N[C@H](C(=O)N[C@@H](CC(N)=O)C(=O)N[C@H](C(=O)NCC(=O)N[C@@H](CO)C(=O)N[C@@H](CC(N)=O)C(=O)N[C@H](C(=O)N[C@@H](Cc1ccc(O)cc1)C(N)=O)[C@@H](C)O)C(C)C)[C@@H](C)O [Example 15] ({C20 diacid-γGlu-γGlu}-KCNTATCATQRLAEFLRHSSPNFGAIPSSTNVGSNTY-NH2; disulfide 2-7) |
